These results are taken from patent publication US20140219925A1, “POLYMER PARTICLES OR NANO-VECTORS AND USE THEREOF AS A DRUG AND/OR DIAGNOSTIC AGENT” (INSERM (Institut National de la Sante et de la Recherche …, priority 2011, published 2014).

Several values for one entry are separate records, joined by “and”; a condition that tells them apart may be missing. Equal values may be shown once. Read-outs that look alike come from different tables or passages of the source.

Data set [1] deals with HDAC. Briefly: BRET measurement of histone acetylation / HDAC inhibition in Met-5A cells. The format is cell-based. On the procedure: Cellular model: Met-5A cells (ATCC)
Seed 200000 cells per well of a 6-well plate in 2 ml of RPMI 10% FCS penicillin/streptomycin and glutamine.
D1: Transfection: phRluc-C1 BrD+pEYFP-C1 histone H3
600 ng of phRluc-C1 BrD+1500 ng of pEYFP-C1 histone H3 in 100 μl of crude RPMI.
After 6 h at 37° C., begin the treatments by adding 20 μl of treatment medium (RPMI 10% FCS penicillin, streptomycin and L-glutamine) comprising the test compounds at a ten-fold concentration.
Add 5 μl per well of coelenterazine h (Interchim) at 25 μM.
Parameters: Reading at 485 nm for 1 second and then reading at 530 nm for 1 second.
((value 530 nm phRluc-C1 BrD+pEYFP-C1 histone H3/value 480 nm phRluc-C1 BrD+pEYFP-C1 histone H3)-(value 530 nm phRluc-C1 BrD/value 480 nm phRluc-C1 BrD))×1000
Unit: milli BRET unit (mBu)
These experiments make it possible to evaluate the release of the HDAC inhibitors (HDI) in the live cells.
(In general: BRET reads energy transfer from a luciferase to a nearby fluorophore.)

A short description of data set [2]: Hydrolysis in buffer solutions, release monitored by HPLC. The format is physicochemical. The note with it: for half-life at 1 mg/ml: 1 mg/ml in acetonitrile 80% / buffer solution 20%. On the procedure:
The compound is put into an acid medium (citrate buffer for pH 4.3 and […] buffer for pH 7.3) and release of CI-994 is monitored by HPLC. The hydrolysis of the compounds of the invention was carried out in buffer solutions (citrate buffer for pH 4.3 and […] for pH 7.3) at pH=4.3 and at pH=7.3. The concentration of the samples is 1 mg/ml in the solution: acetonitrile at 80% and buffer solution at 20%. […] In some cases the measurements were prolonged for 2 or 3 weeks, or even a month.

As a reminder, the EC50 is the midpoint of the concentration-response curve. For `CC(=O)Nc1ccc(C(=O)Nc2ccccc2N)cc1` [CI-994, reference compound], the EC50 in data set [1] (read-out: EC50 (BRET), average value±standard deviation of three independent experiments) is 0.86 ± 1.14 µM.
For the molecule `C#CCOCCOCCOCCOCCn1cc(C(Nc2ccccc2NC(=O)c2ccc(NC(C)=O)cc2)(c2ccccc2)c2ccccc2)nn1` [Compound 9c, N-(2-((1-(3,6,9,12-tetraoxapentadec-14-ynyl)-1H-1,2,3-triazol-4-yl)diphenylmethylamino)phenyl)-4-acetamidobenzamide], the half-life at 1 mg/ml was 0.5 h in data set [2] (pH 4.3 citrate buffer, read-out: t1/2 pH 4.3) and 86.4 h in data set [2] (pH 7.3 Trisma buffer, read-out: t1/2 pH 7.3 (converted)). In data set [1] (average value±standard deviation of three independent experiments, read-out: EC50 (BRET)), the concentration giving a half-maximal response (EC50) is 7.17 µM and 6.2 µM.
Turning to “N^1-((1-(3,6,9,12-tetraoxapentadec-14-ynyl)-1H-1,2,3-triazol-4-yl)bis(4-fluorophenyl)methoxy)phenyl [Compound 21g]”, in data set [2] (pH 7.3), the time without hydrolysis entry is on record as “at least 1 month”.
